Structures are written as SMILES. pEC50: −log10 of the molar value.

In the assay the target is T1, human GPR43 (Homo sapiens, UniProt O15552).
T1 construct: expressed in transfected cells
T1 sequence (O15552 1-330): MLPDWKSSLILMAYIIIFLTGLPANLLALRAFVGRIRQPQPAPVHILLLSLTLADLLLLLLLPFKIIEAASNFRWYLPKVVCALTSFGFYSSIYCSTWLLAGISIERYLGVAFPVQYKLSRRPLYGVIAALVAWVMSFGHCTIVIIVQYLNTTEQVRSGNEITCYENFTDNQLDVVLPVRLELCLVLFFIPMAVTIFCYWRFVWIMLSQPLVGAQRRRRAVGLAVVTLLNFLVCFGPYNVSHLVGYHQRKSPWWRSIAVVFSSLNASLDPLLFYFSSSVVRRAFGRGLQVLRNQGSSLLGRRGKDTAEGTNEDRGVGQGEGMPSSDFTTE
The experiment in a line: Ca-Flux Functional Assay: Determination of Agonist/Positive Allosteric Modulator (PAM) Activity. It counts as cell-based. The note with it: CHO-K1 Gα16 cells stably expressing human GPR43; compound added in the presence of EC20 sodium acetate; intracellular Ca2+ by FLIPR; agonist/PAM activity not distinguished. As for the experimental part: Ca-Flux Functional Assay: Determination of Agonist/Positive Allosteric Modulator (PAM) Activity
GPR43 agonist/PAM activity was determined by measuring changes in intracellular calcium levels using a Ca^2+ sensitive fluorescent dye. The changes in fluorescent signal were monitored by FLIPR (manufactured by Molecular Devices). GPR43 mediated increases in intracellular Ca^2+ concentration were readily detected upon activation with sodium acetate. Prior to the assay (24 hours), CHO-K1 Gα16 cells stably expressing human GPR43 were-seeded in cell culture medium in black, clear-bottom 384-well plates (Corning Inc) and grown overnight at 37° C., 5% CO2. On the day of the assay, cell culture media was removed and cells were loaded with Calcium 5 Dye (Molecular Devices) diluted in HBSS containing 25 mM HEPES, 2.5 mM Probenecid, 0.1% BSA for 1 hour at 37° C., 5% CO2. 10 point half log concentration response curves of sodium acetate from 10 mM were conducted prior to the testing of compounds to calculate the sodium acetate concentration that produces 20% of the maximal response (EC20). Test compounds (at to point half log concentration response curves from 10 μM) were added in the presence of sodium acetate to achieve a final concentration that produces approximately 20% maximal response as calculated from the previous experiment. The changes in fluorescent signal were monitored by FLIPR upon addition of the compound/EC20 sodium acetate mix. The EC50 values were determined from ten point concentration response curves. Curves were generated using the average of two wells for each data point.
The above assay detects both GPR43 receptor agonists and positive allosteric modulators of the GPR43 receptor, without distinguishing between the two. Activity in either regard is useful in the treatment of conditions associated with GPR43 receptor activity.
On to `Nc1c(S(=O)(=O)c2ccccc2)c2cccnc2n1C1CCC(F)(F)CC1` [Example 17, 3-(benzenesulfonyl)-1-(4,4-difluorocyclohexyl)-1H-pyrrolo[2,3-b]pyridin-2-amine], for which the pEC50 (commonly the negative decadic logarithm of the EC50, by convention in mol/L) is 6.25.
As to `Nc1c(S(=O)(=O)N2CCC(F)(F)CC2)c2nccnc2n1C1CCCCC1` [Example 69, 5-cyclohexyl-7-((4,4-difluoropiperidin-1-yl)sulfonyl)-5H-pyrrolo[2,3-b]pyrazin-6-amine], the pEC50 is 6.26.
Next, `N#Cc1ncnc2c(S(=O)(=O)c3ccccc3)c(N)n(C3CCCCC3)c12` [Example 37, 6-amino-7-(benzenesulfonyl)-5-cyclohexyl-5H-pyrrolo[3,2-d]pyrimidine-4-carbonitrile]: 6.33.
On to `Nc1c(S(=O)(=O)NCC2CCC2)c2nccnc2n1C1CCCCC1` [Example 74, 6-amino-N-(cyclobutylmethyl)-5-cyclohexyl-5H-pyrrolo[2,3-b]pyrazine-7-sulfonamide], for which the pEC50 is 6.49.
As to `Nc1c(S(=O)(=O)NCC2CC2)c2nccnc2n1C1CCCCC1` [Example 89, 6-amino-5-cyclohexyl-N-(cyclopropylmethyl)-5H-pyrrolo[2,3-b]pyrazine-7-sulfonamide], the pEC50 was 6.18.
The result for `COC1CCN(S(=O)(=O)c2c(N)n(C3CCCCC3)c3nccnc23)C1` (stereo not shown) [Example 91, 5-cyclohexyl-7-(3-methoxypyrrolidine-1-sulfonyl)-5H-pyrrolo[2,3-b]pyrazin-6-amine] reads 5.08.
For `Cc1ccc2c(S(=O)(=O)c3ccccc3)c(N)n(C3CCC(F)(F)CC3)c2n1` [Example 25, 3-(benzenesulfonyl)-1-(4,4-difluorocyclohexyl)-6-methyl-1H-pyrrolo[2,3-b]pyridin-2-amine], the pEC50 is 5.96.
Next, `Nc1c(S(=O)(=O)N2CCOCC2)c2nccnc2n1C1CCCCC1` [Example 61, 5-cyclohexyl-7-(morpholinosulfonyl)-5H-pyrrolo[2,3-b]pyrazin-6-amine]: 5.36; `Nc1c(S(=O)(=O)N2CC(n3cccn3)C2)c2nccnc2n1C1CCCCC1` [Example 101, 5-cyclohexyl-7-[3-(1H-pyrazol-1-yl)azetidine-1-sulfonyl]-5H-pyrrolo[2,3-b]pyrazin-6-amine]: 5.15.
Regarding `COc1nc(C)nc2c(S(=O)(=O)c3ccccc3F)c(N)n(C3CCCCC3)c12` [Example 38, 5-cyclohexyl-7-(2-fluorobenzenesulfonyl)-4-methoxy-2-methyl-5H-pyrrolo[3,2-d]pyrimidin-6-amine], the pEC50 was 6.77.
The result for `COC1CCN(S(=O)(=O)c2c(N)n(C3CCCCC3)c3nccnc23)CC1` [Example 73, 5-cyclohexyl-7-(4-methoxypiperidine-1-sulfonyl)-5H-pyrrolo[2,3-b]pyrazin-6-amine] reads 6.31.
Turning to `Cc1ccc(S(=O)(=O)c2c(N)n(C3CCCCCC3)c3nccnc23)cc1` [Example 2, 5-cycloheptyl-7-[(4-methylbenzene)sulfonyl]-5H-pyrrolo[2,3-b]pyrazin-6-amine], the negative logarithm of the EC50 (pEC50) is 6.66.
`Nc1c(S(=O)(=O)N2CCC(C(F)(F)F)CC2)c2nccnc2n1C1CCCCC1` [Example 87, 5-cyclohexyl-7-[4-(trifluoromethyl)piperidine-1-sulfonyl]-5H-pyrrolo[2,3-b]pyrazin-6-amine]: the pEC50 was 5.81.
Take `COc1nc(C)nc2c(S(=O)(=O)c3cccc(F)c3)c(N)n(C3CCCCC3)c12` [Example 39, 5-cyclohexyl-7-(3-fluorobenzenesulfonyl)-4-methoxy-2-methyl-5H-pyrrolo[3,2-d]pyrimidin-6-amine]: the pEC50 was 6.18.
Regarding `Nc1c(S(=O)(=O)N2CCC(O)CC2)c2nccnc2n1C1CCCCC1` [Example 93, 1-{6-amino-5-cyclohexyl-5H-pyrrolo[2,3-b]pyrazine-7-sulfonyl}piperidin-4-ol], the pEC50 is 5.24.
For `CCCN(C)S(=O)(=O)c1c(N)n(C2CCCCC2)c2nccnc12` [Example 60, 6-amino-5-cyclohexyl-N-methyl-N-propyl-5H-pyrrolo[2,3-b]pyrazine-7-sulfonamide], the pEC50 was 5.85.
Consider `Nc1c(S(=O)(=O)N2CCCOCC2)c2nccnc2n1C1CCCCC1` [Example 72, 5-cyclohexyl-7-(1,4-oxazepane-4-sulfonyl)-5H-pyrrolo[2,3-b]pyrazin-6-amine], for which the negative-log EC50 (pEC50) was 5.75.
For the molecule `Nc1c(S(=O)(=O)N2CCN(CC(F)(F)F)CC2)c2nccnc2n1C1CCCCC1` [Example 105, 5-cyclohexyl-7-[4-(2,2,2-trifluoroethyl)-piperazine-1-sulfonyl]-5H-pyrrolo[2,3-b]pyrazin-6-amine], the pEC50 is 6.19.
As to `COc1ncnc2c(S(=O)(=O)c3ccccc3)c(N)n(C3CCOCC3)c12` [Example 40, 7-(benzenesulfonyl)-4-methoxy-5-(oxan-4-yl)-5H-pyrrolo[3,2-d]pyrimidin-6-amine], the pEC50 is 5.13.
With `Nc1c(S(=O)(=O)c2ccccc2)c2ccncc2n1C1CCCCC1` [Example 20, 3-(benzenesulfonyl)-1-cyclohexyl-1H-pyrrolo[2,3-]pyridin-2-amine], the pEC50 was 5.63.
Take `Nc1c(S(=O)(=O)c2ccc(OC(F)(F)F)cc2)c2nccnc2n1C1CCCCC1` [Example 116, 5-cyclohexyl-7-{[4-(trifluoromethoxy)-benzene]sulfonyl}-5H-pyrrolo[2,3-b]pyrazin-6-amine]: the pEC50 is 5.97.
As to `Nc1c(S(=O)(=O)N2CCC(c3ccccc3)CC2)c2nccnc2n1C1CCCCC1` [Example 83, 5-cyclohexyl-7-(4-phenylpiperidine-1-sulfonyl)-5H-pyrrolo[2,3-b]pyrazin-6-amine], the pEC50 was 6.03.
On to `Nc1c(S(=O)(=O)N2CCc3ccccc3C2)c2nccnc2n1C1CCCCC1` [Example 94, 5-cyclohexyl-7-(1,2,3,4-tetrahydroisoquinoline-2-sulfonyl)-5H-pyrrolo[2,3-b]pyrazin-6-amine], for which the pEC50 is 6.51.
On to `COc1ccc(S(=O)(=O)c2c(N)n(C3CCCCC3)c3nccnc23)cc1` [Example 108, 5-cyclohexyl-7-[(4-methoxybenzene)-sulfonyl]-5H-pyrrolo[2,3-b]pyrazin-6-amine], for which the pEC50 was 7.11.
As for `Nc1c(S(=O)(=O)c2ccccc2)c2cncnc2n1C1CCCCC1` [Example 16], the pEC50 was 6.47.
Turning to `Nc1c(S(=O)(=O)c2cccc(F)c2)c2nccnc2n1C1CCCCC1` [Example 110, 5-cyclohexyl-7-[(3-fluorobenzene)sulfonyl]-5H-pyrrolo[2,3-b]pyrazin-6-amine], the pEC50 is 6.46.
With `COc1nccc2c(S(=O)(=O)c3ccccc3)c(N)n(C3CCCCC3)c12` [Example 36, 3-(benzenesulfonyl)-1-cyclohexyl-7-methoxy-1-pyrrolo[2,3-c]pyridin-2-amine], the pEC50 was 6.61.
Turning to `Nc1c(S(=O)(=O)c2ccc(OC(F)F)cc2)c2nccnc2n1C1CCCCC1` [Example 118, 5-cyclohexyl-7-{[4-(difluoromethoxy)-benzene]sulfonyl}-5H-pyrrolo[2,3-b]pyrazin-6-amine], the pEC50 was 6.75.
As to `Nc1c(S(=O)(=O)Nc2cccnc2)c2nccnc2n1C1CCCCC1` [Example 42, 6-amino-5-cyclohexyl-N-(pyridin-3-yl)-5H-pyrrolo[2,3-b]pyrazine-7-sulfonamide], the pEC50 is 5.64.
In the case of `CN(C)c1ncnc2c(S(=O)(=O)c3ccccc3)c(N)n(C3CCCCC3)c12` [Example 34, 7-(benzenesulfonyl)-5-cyclohexyl-4-N,4-N-dimethyl-5H-pyrrolo[3,2-d]pyrimidine-4,6-diamine], the pEC50 was 5.22.
`Nc1c(S(=O)(=O)N2CCCCCC2)c2nccnc2n1C1CCCCC1` [Example 77, 7-(azepane-1-sulfonyl)-5-cyclohexyl-5H-pyrrolo[2,3-b]pyrazin-6-amine]: the pEC50 was 6.54.
`Nc1c(S(=O)(=O)c2ccccc2)c2ncncc2n1C1CCCCC1` [Example 19, 7-(benzenesulfonyl)-5-cyclohexyl-5H-pyrrolo[3,2-d]pyrimidin-6-amine]: the negative-log EC50 (pEC50) was 5.75.
On to `CC1CCCN1S(=O)(=O)c1c(N)n(C2CCCCC2)c2nccnc12` (stereo not shown) [Example 68, 5-cyclohexyl-7-((2-methylpyrrolidin-1-yl)sulfonyl)-5H-pyrrolo[2,3-b]pyrazin-6-amine], for which the pEC50 was 5.83.
Regarding `Nc1c(S(=O)(=O)c2cccs2)c2nccnc2n1C1CCCCC1` [Example 8, 5-cyclohexyl-7-(thiophene-2-sulfonyl)-5H-pyrrolo[2,3-b]pyrazin-6-amine], the pEC50 was 6.93.

The values above are taken from patent US20170369492A1 (Takeda Pharmaceutical Company Limited, priority 2014, published 2017).
